In patent US8357681B2, “Composition and method for controlling pests” (priority 2008, dated 2013) one finds Actual control value data, which are given here for two compounds.

The test system of the test is Pythium ultimum, pathogen of cucumber damping-off. In words: Cucumber damping-off seed treatment test (Test Example 1). It counts as in vivo. The settings on record: cucumber seeds, 18° C., 13 days. An excerpt:
An acetone solution of ethaboxam and an acetone solution of clothianidin were mixed to prepare mixed liquids containing ethaboxam and clothianidin in predetermined concentration. These mixed liquids were adhered on the surface of cucumber (Sagamihanjiro) seeds and allowed to stand still overnight. A plastic pot was filled with sandy soil and the seeds were disseminated on it. Then the seeds were covered with sandy soil which had been mixed with a bran medium on which Pythium ultimum, pathogen of cucumber damping-off, had been allowed to grow. They were irrigated and allowed to grow at 18° C. under humidity for 13 days, and thereafter control effect was checked.
As a comparison, acetone solutions containing ethaboxam in the predetermined concentration and acetone solutions containing clothianidin in the predetermined concentration were prepared and subjected to similar tests.
The incidence of disease was calculated by Equation 1 and the control value was calculated by Equation 2 based on the incidence of disease.
A: Incidence of disease of plant in untreated area
B: Incidence of disease of plant in treated area
E=X+Y−(X×Y)/100 “Equation 2”

`CCNc1nc(CC)c(C(=O)NC(C#N)c2cccs2)s1` (stereo not shown) [Ethaboxam, ethaboxam] showed an Actual control value (ethaboxam 5 g ai/100 kg-seed alone) of 60% and an Actual control value (ethaboxam 10 g ai/100 kg-seed alone) of 73%.

For the compound `CN/C(=N\[N+](=O)[O-])NCc1cnc(Cl)s1` [clothianidin], the Actual control value reads like this: (clothianidin 150 g ai/100 kg-seed alone) 0.0%; (clothianidin 300 g ai/100 kg-seed alone) 0.0%.
